From patent US20090111823A1, “AMINOPYRIDINE DERIVATIVES AS MODULATORS OF MGLUR5” (AstraZeneca AB, priority 2007, published 2009)

What was measured:
[1] = molecular target: T1, human mGluR5d (Homo sapiens, UniProt P41594); test: FLIPR assay, mobilization of intracellular calcium in cells expressing human mGluR5d; type: cell-based; settings: antagonism, read-out: FLIPR hmGluR5d
T1 construct: expressed in transfected cells; The separate IP3 assay uses GHEK cells stably expressing human mGluR5d
Excerpt: Functional Assessment of mGluR5 Antagonism in Cell Lines Expressing mGluR 5D
The properties of the compounds of the invention can be analyzed using standard assays for pharmacological activity. Examples of glutamate receptor assays are well known in the art as described in for example Aramori et al, Neuron 8:757 (1992), Tanabe et al., Neuron 8:169 (1992), Miller et al., J. Neuroscience 15: 6103 (1995), Balazs, et al., J. Neurochemistry 69:151 (1997). The methodology described in these publications is incorporated herein by reference. Conveniently, the compounds of the invention can be studied by means of an assay (FLIPR) that measures the mobilization of intracellular calcium, [Ca^2+]i in cells expressing mGluR5 or another assay (IP3) that measures inositol phosphate turnover.
Cells expressing human mGluR5d as described in WO97/05252 cultured in a mixture of high glucose DMEM with Glutamax (31966-021)(500 mL), 10% dialyzed fetal bovine serum (Hyclone #SH30079.03)(56 mL), 200 μg/mL Hygromycin B (Invitrogen 45-0430, 50 mg/mL)(2.2 mL), 200 μg/mL Zeocin (invitrogen #R250-01; 100 mg/mL)(1.1 mL) are seeded at a density of 100,000 cells per well on collagen coated clear bottom 96-well plates with black sides and cells were allowed to adhere over night before experiments. All assays are done in a buffer containing 146 mM NaCl, 5 mM KCl, 1 mM MgCl2, 1 mM CaCl2, 20 mM HEPES, 1 mg/mL glucose and 1 mg/mL BSA Fraction IV (pH 7.4). Cell cultures in the 96-well plates are loaded for 60 minutes in the above mentioned buffer containing 6 μM of the acetoxymethyl ester form of the fluorescent calcium indicator fluo-3 (Molecular Probes, Eugene, Oreg.) in 0.025% pluronic acid (a proprietary, non-ionic surfactant polyol—CAS Number 9003-11-6). […] The fluorescence signal is sampled 50 times at 1-second intervals followed by 3 samples at 5-second intervals immediately after each of the two additions. Responses are measured as the difference between the peak heights of the response to agonist, less the background fluorescence within the sample period. […]

[2] = Determination of brain to plasma ratio in rat; type: in vivo; settings: female Sprague Dawley rats, read-out: Brain/Plasma Ratio of compound in Rat
Procedure: Brain to plasma ratios are estimated in female Sprague Dawley rats. The compound is dissolved in water or another appropriate vehicle. For determination of brain to plasma ratio the compound is administrated as a subcutaneous, or an intravenous bolus injection, or an intravenous infusion, or an oral administration. At a predetermined time point after the administration a blood sample is taken with cardiac puncture. The rat is terminated by cutting the heart open, and the brain is immediately retained. The blood samples are collected in heparinized tubes and centrifuged within 30 minutes, in order to separate the plasma from the blood cells. The plasma is transferred to 96-well plates and stored at −20° C. until analysis. The brains are divided in half, and each half is placed in a pre-tarred tube and stored at −20° C. until analysis. Prior to the analysis, the brain samples are thawed and 3 mL/g brain tissue of distilled water is added to the tubes. The brain samples are sonicated in an ice bath until the samples are homogenized. Both brain and plasma samples are precipitated with acetonitrile. After centrifugation, the supernatant is diluted with 0.2% formic acid. Analysis is performed on a short reversed-phase HPLC column with rapid gradient elution and MSMS detection using a triple quadrupole instrument with electrospray ionisation and Selected Reaction Monitoring (SRM) acquisition. Liquid-liquid extraction may be used as an alternative sample clean-tip. The samples are extracted, by shaking, to an organic solvent after addition of a suitable buffer. An aliquot of the organic layer is transferred to a new vial and evaporated to dryness under a stream of nitrogen. After reconstitution of the residuals the samples are ready for injection onto the HPLC column.

T1 sequence (P41594 21-942 isoform P41594-3 limits assumed): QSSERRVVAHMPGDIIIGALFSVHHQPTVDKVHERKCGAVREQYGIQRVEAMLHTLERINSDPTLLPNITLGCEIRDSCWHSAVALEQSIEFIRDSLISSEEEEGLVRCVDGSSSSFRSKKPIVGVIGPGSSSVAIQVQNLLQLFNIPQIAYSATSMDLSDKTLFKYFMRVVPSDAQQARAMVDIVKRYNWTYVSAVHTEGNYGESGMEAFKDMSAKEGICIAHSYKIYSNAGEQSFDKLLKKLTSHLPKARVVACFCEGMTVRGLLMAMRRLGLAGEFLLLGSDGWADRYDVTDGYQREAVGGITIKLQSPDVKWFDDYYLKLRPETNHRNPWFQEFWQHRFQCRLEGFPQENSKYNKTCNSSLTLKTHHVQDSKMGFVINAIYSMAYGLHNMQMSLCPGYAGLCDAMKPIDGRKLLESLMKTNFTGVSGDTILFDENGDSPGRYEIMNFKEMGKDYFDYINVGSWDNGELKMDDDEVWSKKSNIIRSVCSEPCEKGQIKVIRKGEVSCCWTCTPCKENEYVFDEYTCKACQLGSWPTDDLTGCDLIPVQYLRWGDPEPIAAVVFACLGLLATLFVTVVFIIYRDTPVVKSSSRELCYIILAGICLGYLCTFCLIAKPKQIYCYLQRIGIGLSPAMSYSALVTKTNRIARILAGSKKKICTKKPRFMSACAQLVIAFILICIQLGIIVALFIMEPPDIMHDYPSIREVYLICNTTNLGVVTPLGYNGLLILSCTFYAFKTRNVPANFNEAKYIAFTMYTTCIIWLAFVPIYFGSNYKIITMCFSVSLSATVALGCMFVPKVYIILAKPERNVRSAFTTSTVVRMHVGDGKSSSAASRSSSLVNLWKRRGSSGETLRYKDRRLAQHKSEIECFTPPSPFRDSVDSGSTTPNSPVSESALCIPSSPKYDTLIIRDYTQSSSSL

IC50 [1] [nM]	Kp [2]	Structure (SMILES)
34	< 0.01	Cn1c(-c2ccc(N)nc2)nnc1N1CCCC1c1cc(-c2ccccc2)on1 (stereo in doubt) [Example 5.3, 5-{4-Methyl-5-[(2R)-2-(5-phenylisoxazole-3-yl)pyrrolidin-1-yl]-4H-1,2,4-triazol-3-yl}pyridin-2-amine]
39	0.285	CN(C)c1ccc(-c2nnc(N3CCC[C@@H]3c3cc(-c4cccc(Cl)c4)on3)n2C)cn1 [Example 5.1, 5-(5-{(2R)-2-[5-(3-Chlorophenyl)isoxazol-3-yl]pyrrolidin-1-yl}-4-methyl-4H-1,2,4-triazol-3-yl)-N,N-dimethylpyridin-2-amine]
< 3	0.085	Cn1c(-c2ccc(N)nc2)nnc1N1CCC[C@@H]1c1cc(-c2cccc(Cl)c2)on1 [Example 5.2, 5-(5-{(2R)-2-[5-(3-Chlorophenyl)isoxazol-3-yl]pyrrolidin-1-yl}-4-methyl-4H-1,2,4-triazol-3-yl)pyridin-2-amine]
